In patent US20080293727A1, “Novel sulfonamide inhibitors of aspartyl protease” (priority 1992, published 2008):

These compounds were tested against HIV-1 protease (Human immunodeficiency virus type 1 group M subtype B, UniProt P04585) (assay: Inhibition constants against HIV-1 protease (method of Pennington et al.)). Conditions: HIV-1 protease; read-out: Ki value.
Format: biochemical
Source text: We measured the inhibition constants of the compounds listed in Table VII against HIV-1 protease using the above-cited method of Pennington et al.
`O=C1N[C@H](COC(=O)N[C@@H](Cc2ccccc2)[C@H](O)CN(CC2CCCC2)S(=O)(=O)c2ccc(Cl)cc2)CO1` [Compound 139, 4-Chloro-N-cyclopentylmethyl-N-(2-(syn)-hydroxy-3-((2-oxazolidon-4-(S)-yl-methyl)-oxycarbonylamino)-4-phenyl-butyl)-benzenesulfonamide] was tested, and the Ki was 1.2 nM.
For `COc1ccc(S(=O)(=O)N(CC2CCCC2)C[C@@H](O)[C@H](Cc2ccccc2)NC(=O)O[C@H]2CCOC2)cc1` [Compound 140, N-cyclopentylmethyl-N-((2 syn,3S)-2-hydroxy-4-phenyl-3-((S)-tetrahydrofuran-3-yloxycarbonylamino)-butyl)-4-methoxy-benzenesulfonamide], the Ki was < 0.1 nM.
`C=CCOC(=O)N[C@@H](Cc1ccccc1)[C@H](O)CN(CC1CCCC1)S(=O)(=O)c1ccc(OC)cc1` [Compound 141, N-((3-allyloxycarbonylamino)-(2 syn,3S)-2-hydroxy-4-phenyl-butyl)-N-cyclopentylmethyl-4-methoxy-benzenesulfonamide] showed a Ki of 0.1 nM.
`COc1ccc(S(=O)(=O)N(CC2CCCC2)C[C@@H](O)[C@H](Cc2ccccc2)NC(=O)OCc2cccnc2)cc1` [Compound 142] was tested, and the Ki was < 0.1 nM.
`CC(C)CN(C[C@@H](O)[C@H](Cc1ccccc1)NC(=O)O[C@H]1CCOC1)S(=O)(=O)c1ccc(-c2ccon2)s1` [Compound 145, 5-Isoxazol-3-yl-thiophene-2-sulfonic acid ((2 syn,3S)-2-hydroxy-4-phenyl-3-((S)-tetrahydrofuran-3-yloxycarbonylamino)-butyl)-isobutyl-amide] showed a Ki of 1.4 nM.
For `C=CCOC(=O)N[C@@H](Cc1ccccc1)[C@H](O)CN(CC1CCCC1)S(=O)(=O)c1ccc(NC(C)=O)cc1` [Compound 146, N-(4-((3-(Allyloxycarbonylamino)-(2 syn,3S)-2-hydroxy-4-phenyl-butyl)-cyclopentylmethylsulfamoyl)-phenyl)-acetamide], the Ki was 2 nM.
`CC(=O)Nc1ccc(S(=O)(=O)N(CC2CCCC2)C[C@@H](O)[C@H](Cc2ccccc2)NC(=O)OCc2cccnc2)cc1` [Compound 147, N-(4-(Cyclopentylmethyl-((2 syn,3S)-2-hydroxy-4-phenyl-3-(pyridin-3-yl-methoxycarbonylamino)-butyl)-sulfamoyl)-phenyl)-acetamide] gave a Ki of 1.6 nM.
Compound `O=C(N[C@@H](Cc1ccccc1)[C@H](O)CN(CC1CCCC1)S(=O)(=O)c1ccccc1)O[C@H]1CCOC1` [Compound 148, N-Cyclopentylmethyl-N-((2 syn,3S)-2-hydroxy-4-phenyl-3-((S)-tetrahydrofuran-3-yloxycarbonylamino)-butyl)-benzenesulfonamide] has a Ki of 0.2 nM.
`O=C(N[C@@H](Cc1ccccc1)[C@H](O)CN(CC1CCCC1)S(=O)(=O)c1cccnc1)O[C@H]1CCOC1` [Compound 149, Pyridine-3-sulfonic acid cyclopentylmethyl-((2 syn,3S)-2-hydroxy-4-phenyl-3-((S)-tetrahydrofuran-3-yloxycarbonylamino)-butyl)-amide] gave a Ki of 1.7 nM.
For `CC(C)CN(C[C@@H](O)[C@H](Cc1ccccc1)NC(=O)O[C@H]1CCOC1)S(=O)(=O)N1CCCCC1` [Compound 150, Piperidine-1-sulfonic acid ((2 syn,3S)-2-hydroxy-4-phenyl-3-((S)-tetrahydrofuran-3-yloxycarbonylamino)-butyl)-isobutyl-amide], the Ki was 6 nM.
For `O=C(N[C@@H](Cc1ccccc1)[C@H](O)CN(CC1CCCC1)S(=O)(=O)c1ccc(OC(F)(F)F)cc1)O[C@H]1CCOC1` [Compound 151], the Ki was 0.8 nM.
In the case of `CC(C)CN(C[C@@H](O)[C@H](Cc1ccccc1)NC(=O)O[C@H]1CCOC1)S(=O)(=O)c1ccc(OC(F)(F)F)cc1` [Compound 152], the Ki is reported as 2.5 nM.
`COc1ccc(S(=O)(=O)N(CC(C)C)C[C@@H](O)[C@H](Cc2ccccc2)NC(=O)OCc2cccnc2)cc1` [Compound 153] gave a Ki of 0.2 nM.
Work on `C=CCOC(=O)N[C@@H](Cc1ccccc1)[C@H](O)CN(CC(C)C)S(=O)(=O)c1ccc(OC)cc1` [Compound 154] yielded a Ki of 0.5 nM.
For `C=C(COC)COC(=O)N[C@@H](Cc1ccccc1)[C@H](O)CN(CC(C)C)S(=O)(=O)c1ccc(NC(C)=O)cc1` [Compound 155, N-4-((2-(syn)-Hydroxy-3-((2-methoxymethyl-allyloxycarbonylamino)-4-(S)-phenyl-butyl)-isobutyl-sulfamoyl)-phenyl)-acetamide], the Ki was 1.7 nM.
In the case of `C=CCOC(=O)N[C@@H](Cc1ccccc1)[C@H](O)CN(CC1CCCC1)S(=O)(=O)c1ccc2c(c1)CCN2C(C)=O` [Compound 156], the Ki is reported as 2.8 nM.
With `COc1ccc(S(=O)(=O)N(CC2CCCCC2)C[C@@H](O)[C@H](Cc2ccccc2)NC(=O)O[C@H]2CCOC2)cc1` [Compound 158, N-Cyclohexylmethyl-N-((2 syn,3S)-2-hydroxy-4-phenyl-3-((S)-tetrahydrofuran-3-yloxycarbonylamino)-butyl)-4-methoxy-benzenesulfonamide] the Ki was < 0.1 nM.
For `O=C(N[C@@H](Cc1ccccc1)[C@H](O)CN(CC1CCCCC1)S(=O)(=O)c1ccc(F)cc1)O[C@H]1CCOC1` [Compound 159, N-Cyclohexylmethyl-4-fluoro-N-((2 syn,3S)-2-hydroxy-4-phenyl-3-((S)-tetrahydrofuran-3-yloxycarbonylamino)-butyl)-benzenesulfonamide], the Ki was 0.2 nM.
In the case of `CC(=O)Nc1ccc(S(=O)(=O)N(CC2CCCCC2)C[C@@H](O)[C@H](Cc2ccccc2)NC(=O)O[C@H]2CCOC2)cc1` [Compound 160, N-(4-(Cyclohexylmethyl)-((2 syn,3S)-2-hydroxy-4-phenyl-3-((S)-tetrahydrofuran-3-yloxycarbonylamino)-butyl)-sulfamoyl-phenyl)-acetamide], the Ki is reported as 1 nM.
`CC(C)CN(C[C@@H](O)[C@H](Cc1ccccc1)NC(=O)O[C@H]1CCOC1)S(=O)(=O)N1CCOCC1` [Compound 161] showed a Ki of 20 nM.
`C=C(COC)COC(=O)N[C@@H](Cc1ccccc1)[C@H](O)CN(CC1CCCC1)S(=O)(=O)c1ccc(OC)cc1` [Compound 162] was tested, and the Ki was 0.5 nM.
`COc1ccc(S(=O)(=O)N(CC(C)C)C[C@@H](O)[C@H](Cc2ccccc2)NC(=O)OCc2ccncc2)cc1` [Compound 163, N-((2 syn,3S)-2-Hydroxy-4-phenyl-3-(pyridin-4-yl-methoxycarbonylamino)-butyl)-N-isobutyl-4-methoxy-benzenesulfonamide] gave a Ki of 0.5 nM.
With `CC(=O)Nc1ccc(S(=O)(=O)N(CC(C)C)C[C@@H](O)[C@H](Cc2ccccc2)NC(=O)OCCc2ccccc2)cc1` [Compound 164] the Ki was 130 nM.
Compound `Cc1ccc(S(=O)(=O)N(CC(C)C)C[C@@H](O)[C@H](Cc2ccccc2)NC(=O)O[C@H]2CCOC2)cc1` [Compound 165, N-((2 syn,3S)-2-Hydroxy-4-phenyl-3-((syn)-tetrahydrofuran-3-yloxycarbonylamino)-butyl)-N-isobutyl-4-methyl-benzenesulfonamide] has a Ki of 0.4 nM.
`O=C(N[C@@H](Cc1ccccc1)[C@H](O)CN(CC1CCCC1)S(=O)(=O)c1ccc(O)cc1)OCc1cccnc1` [Compound 166, N-cyclopentylmethyl-4-hydroxy-N-((2 syn,3S)-2-hydroxy-4-phenyl-3-(pyridin-3-yl-methoxycarbonylamino)-butyl)-benzenesulfonamide] was tested, and the Ki was < 0.1 nM.
Compound `CC(C)CN(C[C@@H](O)[C@H](Cc1ccccc1)NC(=O)O[C@H]1CCOC1)S(=O)(=O)c1ccc([N+](=O)[O-])cc1` [Compound 167, N-((2 syn,3S)-2-Hydroxy-4-phenyl-3-((S)-tetrahydrofuran-3-yloxycarbonylamino)-butyl)-N-isobutyl-4-nitro-benzenesulfonamide] has a Ki of 0.45 nM.
`O=C(N[C@@H](Cc1ccccc1)[C@H](O)CN(CC1CCCC1)S(=O)(=O)c1ccc(O)cc1)O[C@H]1CCOC1` [Compound 169, N-Cyclopentylmethyl-4-hydroxy-N-((2 syn,3S)-2-hydroxy-4-phenyl-3-((S)-tetrahydrofuran-3-yloxycarbonylamino)-butyl)-benzenesulfonamide] was tested, and the Ki was < 0.1 nM.
In the case of `O=C(N[C@@H](Cc1ccccc1)[C@H](O)CN(CC1CCCC1)S(=O)(=O)c1ccc([N+](=O)[O-])cc1)O[C@H]1CCOC1` [Compound 170, N-Cyclopentylmethyl-N-((2 syn,3S)-2-hydroxy-4-phenyl-3-((S)-tetrahydrofuran-3-yloxycarbonylamino)-butyl)-4-nitro-benzensulfonamide], the Ki is reported as 0.2 nM.
`Nc1ccc(S(=O)(=O)N(CC2CCCC2)C[C@@H](O)[C@H](Cc2ccccc2)NC(=O)O[C@H]2CCOC2)cc1` [Compound 171, 4-Amino-N-cyclopentylmethyl-N-((2 syn,3S)-2-hydroxy-4-phenyl-3-((S)-tetrahydrofuran-3-yloxycarbonylamino)-butyl)-benzenesulfonamide] was tested, and the Ki was 0.2 nM.
In the case of `O=C(N[C@@H](Cc1ccccc1)[C@H](O)CN(CC1CCCC1)S(=O)(=O)c1ccc([N+](=O)[O-])cc1[N+](=O)[O-])O[C@H]1CCOC1` [Compound 172], the Ki is reported as 21 nM.
`Nc1ccc(S(=O)(=O)N(CC2CCCC2)C[C@@H](O)[C@H](Cc2ccccc2)NC(=O)O[C@H]2CCOC2)c(N)c1` [Compound 173, 2,4-Diamino-N-cyclopentylmethyl-N-((2 syn,3S)-2-hydroxy-4-phenyl-3-((S)-tetrahydrofuran-3-yloxycarbonylamino)-butyl)-benzenesulfonamide] was tested, and the Ki was 0.6 nM.
`CC(C)CN(C[C@@H](O)[C@H](Cc1ccccc1)NC(=O)O[C@H]1CCOC1)S(=O)(=O)c1ccc(OCc2ccccc2)cc1` [Compound 174] was tested, and the Ki was 10 nM.
`CC(C)CN(C[C@@H](O)[C@H](Cc1ccccc1)NC(=O)O[C@H]1CCOC1)S(=O)(=O)c1ccc(O)cc1` [Compound 175] showed a Ki of 0.1 nM.
`COc1ccc(COC(=O)N[C@@H](Cc2ccccc2)[C@H](O)CN(CC2CCCC2)S(=O)(=O)c2ccc(OC)cc2)cc1` [Compound 177] was tested, and the Ki was < 0.1 nM.
With `COc1ccc(S(=O)(=O)N(CC2CCCC2)C[C@@H](O)[C@H](Cc2ccccc2)NC(=O)OCc2cccc(OC)c2)cc1` [Compound 178] the Ki was 0.1 nM.
Compound `COc1ccc(S(=O)(=O)N(CC2CCCC2)C[C@@H](O)[C@H](Cc2ccccc2)NC(=O)OCc2ccccc2OC)cc1` [Compound 179] has a Ki of 0.4 nM.
With `O=C(N[C@@H](Cc1ccccc1)[C@H](O)CN(CC1CCCC1)S(=O)(=O)c1ccc2c(c1)CCO2)O[C@H]1CCOC1` [Compound 180] the Ki was < 0.1 nM.
